Structures are written as SMILES. Active and inactive are the calls of the source. Where only a bound is given, the exact number is not on record here.

Among the targets are Cytochrome P450 2D6 (Homo sapiens, UniProt P10635); Cytochrome P450 3A4 (Homo sapiens, UniProt P08684); Cytochrome P450 2C9 (Homo sapiens, UniProt P11712).
The target in test [1] is T1, Replicative DNA helicase DnaB (Mycobacterium tuberculosis, UniProt P9WMR3).
T1 sequence (P9WMR3 whole entry): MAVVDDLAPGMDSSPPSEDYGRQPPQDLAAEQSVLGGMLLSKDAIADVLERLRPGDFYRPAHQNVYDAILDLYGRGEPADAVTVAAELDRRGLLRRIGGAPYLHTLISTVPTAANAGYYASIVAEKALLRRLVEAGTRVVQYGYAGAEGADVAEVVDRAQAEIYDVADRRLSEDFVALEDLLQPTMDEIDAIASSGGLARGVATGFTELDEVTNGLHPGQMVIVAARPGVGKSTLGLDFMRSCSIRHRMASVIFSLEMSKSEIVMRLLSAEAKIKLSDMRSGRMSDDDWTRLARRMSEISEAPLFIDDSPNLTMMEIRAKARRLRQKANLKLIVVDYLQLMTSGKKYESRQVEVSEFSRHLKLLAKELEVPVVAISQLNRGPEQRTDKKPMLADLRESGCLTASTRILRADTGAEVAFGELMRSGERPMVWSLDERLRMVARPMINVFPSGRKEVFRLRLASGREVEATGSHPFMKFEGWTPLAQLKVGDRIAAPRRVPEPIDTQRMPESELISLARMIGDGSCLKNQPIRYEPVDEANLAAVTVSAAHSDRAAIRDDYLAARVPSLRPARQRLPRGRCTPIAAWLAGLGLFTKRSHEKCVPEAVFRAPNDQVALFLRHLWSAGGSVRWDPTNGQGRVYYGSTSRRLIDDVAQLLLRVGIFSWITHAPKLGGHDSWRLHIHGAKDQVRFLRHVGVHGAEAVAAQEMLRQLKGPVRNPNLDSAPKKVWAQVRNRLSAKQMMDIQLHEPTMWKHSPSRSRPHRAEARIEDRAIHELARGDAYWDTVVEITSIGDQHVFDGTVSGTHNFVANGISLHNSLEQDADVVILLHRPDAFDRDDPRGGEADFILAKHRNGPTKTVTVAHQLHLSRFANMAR
The test is described as follows: DnaB intein splicing inhibitors, dose response, biochemical, cell-free fluorescence (AID 449749). Format: functional.

The next test deals with T2, Protein RecA (Mycobacterium tuberculosis, UniProt P9WHJ3).
T2 sequence (P9WHJ3 whole entry): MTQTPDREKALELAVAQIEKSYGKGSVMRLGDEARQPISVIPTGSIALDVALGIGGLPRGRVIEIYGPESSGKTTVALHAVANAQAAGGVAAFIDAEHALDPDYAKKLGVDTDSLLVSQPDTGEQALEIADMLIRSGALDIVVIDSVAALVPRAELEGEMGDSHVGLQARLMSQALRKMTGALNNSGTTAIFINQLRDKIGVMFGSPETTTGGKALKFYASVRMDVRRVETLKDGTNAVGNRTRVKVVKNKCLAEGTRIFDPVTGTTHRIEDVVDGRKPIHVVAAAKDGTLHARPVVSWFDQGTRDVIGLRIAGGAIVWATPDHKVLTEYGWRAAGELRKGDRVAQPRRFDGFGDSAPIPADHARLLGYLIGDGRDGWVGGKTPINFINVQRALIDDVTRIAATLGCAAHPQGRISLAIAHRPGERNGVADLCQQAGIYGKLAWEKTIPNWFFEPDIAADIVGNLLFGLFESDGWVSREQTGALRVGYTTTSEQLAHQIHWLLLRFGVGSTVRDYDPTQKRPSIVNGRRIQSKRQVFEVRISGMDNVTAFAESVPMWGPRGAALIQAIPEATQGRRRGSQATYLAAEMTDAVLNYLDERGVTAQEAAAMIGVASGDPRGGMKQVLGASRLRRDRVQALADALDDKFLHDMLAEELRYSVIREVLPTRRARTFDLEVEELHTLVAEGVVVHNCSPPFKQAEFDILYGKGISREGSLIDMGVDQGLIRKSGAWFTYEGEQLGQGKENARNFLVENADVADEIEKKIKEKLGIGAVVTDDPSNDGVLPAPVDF
The test can be described thus: Fluorescence Cell-Free Homogeneous Dose Retest to Identify Inhibitors of RecA-Intein Splicing Activity. [Related pubchem assays (depositor defined):AID2097, AID2223, AID489010, AID492950]. Format: functional.

The target in test [2] is T3, Rac GTPase-activating protein 1 (Homo sapiens, UniProt Q9H0H5).
T3 sequence (Q9H0H5 whole entry): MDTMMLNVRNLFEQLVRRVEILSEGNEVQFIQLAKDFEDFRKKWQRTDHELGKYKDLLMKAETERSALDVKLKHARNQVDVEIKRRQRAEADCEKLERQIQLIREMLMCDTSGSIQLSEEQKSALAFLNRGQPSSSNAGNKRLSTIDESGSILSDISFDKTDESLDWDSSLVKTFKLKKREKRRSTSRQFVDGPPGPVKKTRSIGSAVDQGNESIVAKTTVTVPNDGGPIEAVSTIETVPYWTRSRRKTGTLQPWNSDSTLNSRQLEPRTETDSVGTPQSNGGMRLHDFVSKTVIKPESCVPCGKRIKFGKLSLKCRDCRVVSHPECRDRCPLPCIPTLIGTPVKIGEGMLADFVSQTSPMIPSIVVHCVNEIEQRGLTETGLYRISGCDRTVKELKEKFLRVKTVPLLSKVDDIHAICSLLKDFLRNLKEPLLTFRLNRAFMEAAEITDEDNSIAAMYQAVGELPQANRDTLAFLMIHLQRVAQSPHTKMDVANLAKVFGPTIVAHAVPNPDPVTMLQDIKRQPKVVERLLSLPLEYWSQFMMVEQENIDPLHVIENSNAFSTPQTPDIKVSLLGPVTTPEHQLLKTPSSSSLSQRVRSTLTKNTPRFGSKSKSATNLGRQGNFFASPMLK
The test is described as follows: blockers of MgcRacGAP-driven Rac1 GTP hydrolysis – biochemical, ADP Hunter fluorescence, primary and confirmatory, confirmation (AID 624330). Format: functional.

Test [3] has as its target T4, RNA-binding protein pos-1 (Caenorhabditis elegans, UniProt G5EF15).
T4 sequence (G5EF15 whole entry): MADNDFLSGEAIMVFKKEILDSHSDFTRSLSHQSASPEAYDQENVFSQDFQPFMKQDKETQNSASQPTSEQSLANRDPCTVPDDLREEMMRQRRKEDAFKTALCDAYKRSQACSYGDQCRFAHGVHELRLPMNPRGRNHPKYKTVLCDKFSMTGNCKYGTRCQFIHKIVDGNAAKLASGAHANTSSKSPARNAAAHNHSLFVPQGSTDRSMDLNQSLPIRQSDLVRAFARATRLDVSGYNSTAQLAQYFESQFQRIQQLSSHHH
The test can be described thus: disruptors of C. elegans POS-1 RNA interaction – biochemical, fluorescence polarization, dose response (AID 1964).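 Note: purified POS-1 fused to maltose binding protein made in E. coli; potency of compounds blocking POS-1 binding to fluorescent RNA.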

For the next test, the target named is Cytochrome P450 2C19 (Homo sapiens, UniProt P33261). The test can be described thus: Cytochrome panel assay with activity outcomes. Panel member name: p450-cyp2c19 Compounds with AC50 equal or less than 10 uM are considered active. Conditions: read-out: AC50. In kind it is functional.
Chain of Cytochrome P450 2C19 (P33261 whole entry): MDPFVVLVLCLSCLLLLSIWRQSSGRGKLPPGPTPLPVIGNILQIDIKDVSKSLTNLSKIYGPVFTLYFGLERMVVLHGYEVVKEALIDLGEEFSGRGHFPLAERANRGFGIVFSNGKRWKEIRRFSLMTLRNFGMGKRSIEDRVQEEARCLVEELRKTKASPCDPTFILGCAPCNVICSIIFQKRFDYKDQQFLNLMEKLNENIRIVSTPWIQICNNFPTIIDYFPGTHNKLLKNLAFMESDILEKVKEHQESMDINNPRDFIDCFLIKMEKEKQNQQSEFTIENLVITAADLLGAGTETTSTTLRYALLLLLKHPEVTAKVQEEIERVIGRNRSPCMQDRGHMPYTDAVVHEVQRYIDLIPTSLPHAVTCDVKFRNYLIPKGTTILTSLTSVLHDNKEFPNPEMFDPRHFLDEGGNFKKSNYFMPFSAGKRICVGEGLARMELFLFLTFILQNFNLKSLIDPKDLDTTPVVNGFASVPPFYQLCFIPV
Test [4] can be described thus: Luminescence Cell-Based Dose Retest to Confirm Inhibitors of Cancer Stem Cells. [Related pubchem assays (depositor defined):AID2717, AID2721]. In kind it is functional. Conditions: Homo sapiens.
Test [5] deals with Luciferin 4-monooxygenase (Photinus pyralis, UniProt P08659). The test is described as follows: inhibition of purified Photinus pyralis luciferase – biochemical, luminescence, dose response (AID 1891).
Chain of Luciferin 4-monooxygenase (P08659 whole entry): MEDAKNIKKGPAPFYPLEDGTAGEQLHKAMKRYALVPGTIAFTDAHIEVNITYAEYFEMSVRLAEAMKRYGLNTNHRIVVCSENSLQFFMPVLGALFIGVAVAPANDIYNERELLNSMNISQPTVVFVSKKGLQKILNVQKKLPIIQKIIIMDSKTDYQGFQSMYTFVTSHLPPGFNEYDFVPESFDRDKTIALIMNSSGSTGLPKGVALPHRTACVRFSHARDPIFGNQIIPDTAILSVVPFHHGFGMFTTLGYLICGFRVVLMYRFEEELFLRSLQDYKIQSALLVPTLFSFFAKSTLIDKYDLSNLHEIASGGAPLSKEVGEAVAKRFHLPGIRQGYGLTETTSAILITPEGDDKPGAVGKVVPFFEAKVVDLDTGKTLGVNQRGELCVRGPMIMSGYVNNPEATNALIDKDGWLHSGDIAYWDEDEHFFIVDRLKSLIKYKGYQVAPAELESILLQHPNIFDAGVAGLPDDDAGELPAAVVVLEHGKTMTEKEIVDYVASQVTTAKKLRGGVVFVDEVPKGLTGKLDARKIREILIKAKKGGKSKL
A short description of test [6]: Luminescence Cell-Based Dose Confirmation HTS to Identify Inhibitors of Platelet Dense Granule Release. [Related pubchem assays: 1663 (Primary HTS), 1678 (Summary of Project)]. In kind it is functional.
The target of a further test is T5, Cytochrome P450 1A2 (Homo sapiens, UniProt P05177).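 Note: PubChem cytochrome P450 panel assay, CYP1A2 panel member.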
T5 sequence (P05177 whole entry): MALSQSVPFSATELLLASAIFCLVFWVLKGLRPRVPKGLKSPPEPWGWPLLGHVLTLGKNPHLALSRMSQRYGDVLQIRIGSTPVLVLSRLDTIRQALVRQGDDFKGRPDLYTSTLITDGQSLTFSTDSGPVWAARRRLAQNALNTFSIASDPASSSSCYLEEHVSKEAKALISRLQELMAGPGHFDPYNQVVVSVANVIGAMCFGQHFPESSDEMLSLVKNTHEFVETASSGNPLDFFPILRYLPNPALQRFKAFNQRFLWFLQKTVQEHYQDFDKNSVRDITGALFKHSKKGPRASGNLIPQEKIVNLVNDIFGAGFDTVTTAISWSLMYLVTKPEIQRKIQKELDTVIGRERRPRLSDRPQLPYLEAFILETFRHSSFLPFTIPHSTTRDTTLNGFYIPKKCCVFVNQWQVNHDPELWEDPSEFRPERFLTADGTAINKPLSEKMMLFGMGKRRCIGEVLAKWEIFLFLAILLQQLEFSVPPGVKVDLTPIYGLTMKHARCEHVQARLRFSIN

Chain of Cytochrome P450 2D6 (P10635 whole entry): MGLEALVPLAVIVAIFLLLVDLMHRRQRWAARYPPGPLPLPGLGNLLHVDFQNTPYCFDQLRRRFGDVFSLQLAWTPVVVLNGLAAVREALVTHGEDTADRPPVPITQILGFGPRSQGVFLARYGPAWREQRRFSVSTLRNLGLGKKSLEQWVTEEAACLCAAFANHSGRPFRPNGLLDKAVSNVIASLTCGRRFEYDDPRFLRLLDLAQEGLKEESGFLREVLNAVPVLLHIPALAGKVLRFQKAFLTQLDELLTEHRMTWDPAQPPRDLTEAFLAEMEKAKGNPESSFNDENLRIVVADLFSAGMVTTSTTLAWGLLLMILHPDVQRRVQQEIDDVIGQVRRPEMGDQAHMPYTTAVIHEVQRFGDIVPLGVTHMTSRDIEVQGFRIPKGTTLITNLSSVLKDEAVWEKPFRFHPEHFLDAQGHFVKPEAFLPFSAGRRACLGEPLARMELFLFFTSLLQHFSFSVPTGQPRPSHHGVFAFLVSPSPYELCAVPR
Chain of Cytochrome P450 3A4 (P08684 whole entry): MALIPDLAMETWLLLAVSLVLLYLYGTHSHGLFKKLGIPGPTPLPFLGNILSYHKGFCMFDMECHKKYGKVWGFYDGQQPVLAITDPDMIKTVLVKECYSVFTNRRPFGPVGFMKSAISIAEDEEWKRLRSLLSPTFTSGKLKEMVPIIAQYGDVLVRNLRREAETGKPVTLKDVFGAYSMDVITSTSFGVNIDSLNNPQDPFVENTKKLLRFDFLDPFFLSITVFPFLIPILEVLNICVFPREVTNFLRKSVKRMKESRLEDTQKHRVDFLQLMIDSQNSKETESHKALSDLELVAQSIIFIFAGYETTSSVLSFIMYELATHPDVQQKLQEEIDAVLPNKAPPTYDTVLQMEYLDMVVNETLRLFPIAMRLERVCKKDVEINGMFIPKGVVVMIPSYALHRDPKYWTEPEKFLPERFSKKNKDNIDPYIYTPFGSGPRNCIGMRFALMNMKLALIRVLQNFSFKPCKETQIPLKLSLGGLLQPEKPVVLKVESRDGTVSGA
Chain of Cytochrome P450 2C9 (P11712 whole entry): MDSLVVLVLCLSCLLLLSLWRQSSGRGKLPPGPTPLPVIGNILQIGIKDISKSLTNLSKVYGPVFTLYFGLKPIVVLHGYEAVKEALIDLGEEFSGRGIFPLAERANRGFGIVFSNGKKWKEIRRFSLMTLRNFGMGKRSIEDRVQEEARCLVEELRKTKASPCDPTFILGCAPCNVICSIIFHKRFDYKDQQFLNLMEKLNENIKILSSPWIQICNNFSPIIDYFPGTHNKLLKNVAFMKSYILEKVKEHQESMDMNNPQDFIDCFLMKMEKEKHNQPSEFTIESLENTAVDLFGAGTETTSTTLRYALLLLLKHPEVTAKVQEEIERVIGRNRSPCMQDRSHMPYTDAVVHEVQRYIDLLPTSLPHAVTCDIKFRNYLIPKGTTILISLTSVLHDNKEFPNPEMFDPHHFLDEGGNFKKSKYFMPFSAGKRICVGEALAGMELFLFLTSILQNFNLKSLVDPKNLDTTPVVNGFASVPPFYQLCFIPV

The AC50 is the concentration at which the activity in the assay is half-maximal. Broadly, the EC50 is the concentration at which the effect is half-maximal. Turning to `Cc1cc(C)n(-c2ccc([N+](=O)[O-])cc2)n1`, in test [1], the AC50 was > 380 µM (inactive). The EC50 on Protein RecA is > 380 µM (inactive).

Turning to `O=C(CCN1C(=O)/C(=C/c2cccs2)SC1=S)Nc1ccc(C(=O)O)c(O)c1`, the AC50 in test [1] is 5.23 µM (active). Also, the EC50 on Protein RecA is 13.3 µM (active).

A word on the IC50: it is the concentration at which inhibition is half-maximal. On to `CCOc1cc(/C=N/NC(=O)C2CCCC2)ccc1O`, for which the 50% inhibitory concentration (IC50) in test [2] was 52.1 µM (active).

Take `O=C1NC(=O)N(c2cccc(F)c2)C(=O)/C1=C/c1c[nH]c2ccccc12`: the EC50 in test [3] was > 300 µM (not active). As to `COc1ccc(C(C(=O)Nc2ccc(F)cc2)N(C(=O)Cn2nnc3ccccc32)C2CC2)cc1` (stereo not drawn), the concentration at half-maximal activity (AC50) was 10 µM (inconclusive) at Cytochrome P450 2C19 and 28.2 µM (inconclusive) at Cytochrome P450 2D6. Take `COc1ccc(Cn2nnnc2C(c2cccnc2)N2CCN(c3ccc(O)cc3)CC2)cc1` (stereo not drawn): the IC50 in test [2] is 39.6 µM (active). Same read-out and setting: in the case of `Cc1cc(NC(=O)CN2CCC(C)CC2)no1` it was 253 µM (active); in that of `Cc1sc2ncnc(N(C)CCc3ccccn3)c2c1C`, 148 µM (active). Regarding `N#Cc1cccc(NC(=O)N2CCC3(CC2)CCN(C(=O)c2csnn2)CC3)c1`, the AC50 at Cytochrome P450 2D6 is 15.8 µM (inconclusive); on Cytochrome P450 3A4 it was 20 µM (inconclusive). On to `CC(C)=CCc1c(O)cc2c(=O)c3ccc(O)cc3oc2c1O`, for which the AC50 in test [4] was 5.16 µM (active). In the case of `CN(C)C(CNS(=O)(=O)c1ccc2ccccc2c1)c1ccccc1` (stereo not drawn), in test [4], the AC50 is > 195 µM (inactive). In the case of `N#CC1(Nc2ccc3c4c(cccc24)CC3)CCCCC1`, the IC50 in test [2] was 18.5 µM (active). `CC[C@@H]1CC=C[C@H]2[C@H]1C(=O)N(Cc1ccccc1)[C@H]2c1ccoc1`: in [4], the concentration at half-maximal activity (AC50) was 5.39 µM (active). Regarding `COc1ccc(C(=O)/C=C/c2ccc(O)cc2)cc1`, in test [2], the half-inhibitory concentration (IC50) is 37 µM (active). Turning to `O=c1cc(N2CCCCC2)c(-c2ccccc2)nn1Cc1ccccc1`, the AC50 in test [4] was 2.06 µM (active).

`CN1CCc2c(sc(NC(=O)c3ccc(S(=O)(=O)N4CCc5ccccc54)cc3)c2C(N)=O)C1`: in test [4], the AC50 is 2.91 µM (active). As for `CC(CO)Nc1nc(SCc2ccccc2)nc2sc3c(c12)CCC3` (stereo not drawn), the concentration at half-maximal activity (AC50) on Cytochrome P450 2D6 was 12.6 µM (inconclusive). For `CC(C)c1cccc2nc3c(c([Si](C)(C)C)c12)Cn1c-3cccc1=O`, the AC50 on Cytochrome P450 2D6 and on Cytochrome P450 2C9 was 39.8 µM (inconclusive) throughout.

Regarding `CCNc1ncc2nc(-c3cccs3)c(=O)n(C[C@H]3CCCO3)c2n1`, the values for the AC50 on Cytochrome P450 2D6 and on Cytochrome P450 3A4 were 0.2 µM (inconclusive) and 7.94 µM (inconclusive), respectively. With `COc1ccc(C(=O)NCC(=O)OCc2cccc(Br)c2)cc1`, the AC50 on Cytochrome P450 2D6 is 15.8 µM (inconclusive).

Turning to `O=C(/C(=C/c1cccnc1)n1ccnc1)c1ccc(Cl)cc1Cl`, the 50% inhibitory concentration (IC50) in test [2] is 223 µM (active). In the case of `O=C(c1ccc(S(=O)(=O)Nc2ccccc2)cc1)N1CCCC1`, the EC50 in test [5] and in [6] was > 112 µM (not active) each time.

Regarding `COC(=O)c1cc(NS(=O)(=O)c2ccc(N3CCCCCC3)c([N+](=O)[O-])c2)cc(C(=O)OC)c1`, the results for the AC50 on Cytochrome P450 2D6 and at Cytochrome P450 1A2 were 12.6 µM (inconclusive) and 14.1 µM (inconclusive), respectively. Regarding `Cc1nc2ccccc2n1CC(=O)N/N=C\C=C\c1ccccc1`, on Cytochrome P450 2D6, the AC50 was 35.5 µM (inconclusive).

With `CN1CCN(/N=C/c2nc(-c3ccccc3)n3ccccc23)CC1`, in test [2], the 50% inhibitory concentration (IC50) was 29.1 µM (active). As to `Cc1cc(-c2ccc(S(=O)(=O)N3CCN(c4ccccc4F)CC3)s2)on1`, the half-maximal effective concentration (EC50) in [5] and in [6] was > 112 µM (not active) throughout.

`COCC(C)NCc1ccccc1C` (stereo not drawn): the IC50 in test [2] is 138 µM (active). Consider `COc1ccccc1CNc1ncnc2ccc(-c3c(C)noc3C)cc12`, for which the half-maximal activity concentration (AC50) was 31.6 µM (inconclusive) at Cytochrome P450 2C19, 39.8 µM (inconclusive) on Cytochrome P450 2D6 and 0.794 µM (inconclusive) at Cytochrome P450 2C9. In the case of `O=C(OCc1nnc(-c2ccccc2)o1)c1ccc2c(c1)OCCO2`, the AC50 at Cytochrome P450 2D6 is 28.2 µM (inconclusive). `CCOC(=O)C1CCCN(C(=O)CCCn2nc(C)n3c(cc4sccc43)c2=O)C1` (stereo not drawn): the EC50 in test [5] and in test [6] was > 112 µM (not active) each time. For `c1cc2cc(c1)C[n+]1ccc(c3ccccc31)NCc1ccc(cc1)CNc1cc[n+](c3ccccc13)C2`, at Cytochrome P450 2D6, the half-maximal activity concentration (AC50) is 39.8 µM (inconclusive).

For the origin of these results see ChEMBL document CHEMBL1201862, “PubChem BioAssay data set” (2004).
